{
  "source": "patent US10982192B2",
  "about": "“Method for the induction of arterial-type of hemogenic endothelium from hPSCS” (Wisconsin Alumni Research Foundation, priority 2017, dated 2021)",
  "key": {"NOTCH1": {"tested_on": "NOTCH1", "test": "Western blot of activated cleaved NOTCH1 (NOTCH:ICD) in D4 HE", "format": "cell-based, human", "conditions": "D4 HE cultured for 24 h (D4+1); DAPT 10 μM or immobilized DLL1-Fc", "description": "(§1) Human pluripotent stem cells, H1 hESC line, DF19-9-7T fibroblast-hiPSC line, IISH2i-BM9 bone marrow-iPSC line, and IISH3i-CB6 cord blood-iPSC line, were maintained and passaged in chemically defined conditions using vitronectin and E8 medium, as previously described^85. The human PSCs were differentiated into hematoendothelial lineages using a modified protocol previously described^35. On Day −1, hPSCs were singularized and plated on collagen IV-coated plates (0.5 μg/cm^2) at a cell density of 7,500 cells/cm^2 in E8 medium supplemented with 10 uM Rock inhibitor (Y-27632, Cayman Chemicals). On Day 0, the medium was changed to IF9S medium supplemented with BMP4, FGF2 (50 ng/ml), Activin A (15 ng/ml, Peprotech), LiCl (2 mM, Sigma), and ROCK inhibitor (0.5 μM, Cayman Chemicals) and cultured in hypoxia (5% O2, 5% CO2). On day 2, the medium was changed to IF9S medium supplemented with FGF2, VEGF (50 ng/ml, Peprotech), and 2.5 μM TGFβ inhibitor (SB-431542, Cayman Chemicals). On day 4, cell cultures were singularized and stained with anti-CD31 microbeads (Miltenyi) for 15 minutes. Cells were washed and HE were purified using CD31 antibody and MACS LS columns (Miltenyi). […] A sample of the purified cells was analyzed by flow cytometry, and experiments were continued only if the purity of the HE was over 95% CD144^+. […]"}, "HES1": {"tested_on": "HES1", "test": "qPCR of NOTCH1 target gene HES1 in D4 HE", "format": "cell-based, human", "conditions": "D4 HE cultured for 12 hours (D4+0.5)", "description": "as §1, with “CO2).” for “CO2). On day 2, the medium was changed to IF9S medium supplemented with FGF2, VEGF (50 ng/ml, Peprotech), and 2.5 μM TGFβ inhibitor (SB-431542, Cayman Chemicals). On day 4, cell cultures were singularized and stained with anti-CD31 microbeads (Miltenyi) for 15 minutes. Cells were washed and HE were purified using CD31 antibody and MACS LS columns (Miltenyi).”\nCells were differentiated for the respective days and sorted on a FACS Aria II. RNA was collected using RNA MiniPrep Plus (Invitrogen) and quantified on a NanoDrop (GE Healthcare). […] The reactions were run on a Mastercycler RealPlex Thermal Cycler (Eppendorf) and the expression levels were calculated by minimal cycle threshold values (Ct) normalized to the reference expression of RPL13a. […]"}, "[1]": {"tested_on": "D4 CD144+CD43-CD73- HE cells", "test": "Flow cytometry of CD144/CD43 in secondary culture of D4 HE (hematopoiesis/EHT), serum- and feeder-free", "format": "cell-based, human", "description": "Human pluripotent stem cells, H1 hESC line, DF19-9-7T fibroblast-hiPSC line, IISH2i-BM9 bone marrow-iPSC line, and IISH3i-CB6 cord blood-iPSC line, were maintained and passaged in chemically defined conditions using vitronectin and E8 medium, as previously described^85. The human PSCs were differentiated into hematoendothelial lineages using a modified protocol previously described^35. On Day −1, hPSCs were singularized and plated on collagen IV-coated plates (0.5 μg/cm^2) at a cell density of 7,500 cells/cm^2 in E8 medium supplemented with 10 uM Rock inhibitor (Y-27632, Cayman Chemicals). On Day 0, the medium was changed to IF9S medium supplemented with BMP4, FGF2 (50 ng/ml), Activin A (15 ng/ml, Peprotech), LiCl (2 mM, Sigma), and ROCK inhibitor (0.5 μM, Cayman Chemicals) and cultured in hypoxia (5% O2, 5% CO2). On day 2, the medium was changed to IF9S medium supplemented with FGF2, VEGF (50 ng/ml, Peprotech), and 2.5 μM TGFβ inhibitor (SB-431542, Cayman Chemicals). On day 4, cell cultures were singularized and stained with anti-CD31 microbeads (Miltenyi) for 15 minutes. Cells were washed and HE were purified using CD31 antibody and MACS LS columns (Miltenyi). Purified CD31^+ HE were then plated at a density of 20,000 to 30,000 cells/cm^2 on collagen IV-coated plates (1 μg/cm^2) that were either co-coated with IgG-Fc fragments or human DLL1-Fc (made in-house), in IF9S medium supplemented with FGF2, VEGF, EGF, IGF-I, IGF-II, TPO, IL-6 (50 ng/ml), SCF (20 ng/ml), IL-3, FLT3L (10 ng/ml, Peprotech), and ROCK inhibitor (5 μM, Cayman Chemicals), and where specified, DMSO (1:1000, Fisher Scientific) or DAPT (10 μM, Cayman Chemicals), and cultured in normoxia (20% O2, 5% CO2). In some experiments, HE was cultured on plates co-coated with human JAG1-Fc (R&D Systems). A sample of the purified cells was analyzed by flow cytometry, and experiments were continued only if the purity of the HE was over 95% CD144^+. On Day 4+1, the medium was replaced with fresh medium containing the same supplements without ROCK inhibitor. […]"}, "D4 HE": {"tested_on": "D4 HE", "test": "Single-cell deposition assay for endothelial-to-hematopoietic transition on OP9-iDLL4", "format": "cell-based, human", "conditions": "OP9-iDLL4 without DOX-pretreatment, DAPT 20 μM, compared to control condition", "description": "One day before single-cell deposition, the OP9-iDLL4 cell line was treated with mitomycin C as described above, and passaged into 96-well plates at a density of 12,500 cells/cm2. OP9-iDLL4 used for the NOTCH activation condition was incubated with doxycycline for 24 hours after passaging into 96-well plates. On the day of single-cell sorting, OP9-iDLL4 medium was changed to αMEM with 10% FBS (GE), TPO, SCF, IL-6 (50 ng/ml), IL-3, FLT3L (10 ng/ml), and DMSO (1:500) for the control, and NOTCH activation conditions, or DAPT (20 μM) for the NOTCH inhibition condition. Day 4 differentiated human pluripotent stem cells were singularized, stained for CD309-PE and CD144-APC (Miltenyi Biotech), and single-cell sorted into individual wells of the 96-well plates using a FACS Aria II. To exclude possibility of doublets, we used a low density (less than 1 million cells/ml) cells suspension, sorting speed less than 1000 cellular events/per second and stringent gating on single cells using both FSC-A vs FSC-H and SSC-A vs SSC-H. One day after sorting, the medium was changed to fresh medium without DMSO or DAPT, and extra medium was added every 3 days. […]"}, "D4 CD31+ HE cells": {"tested_on": "D4 CD31+ HE cells", "test": "CellTracer proliferation assay and EdU cell cycle analysis", "format": "cell-based, human", "description": "D4 CD31^+ HE cells were incubated in PBS with CellTracer (1 μg/ml, Thermo) for 20 minutes at 37° C. After washing, the cells were plated on collagen IV-coated plates with either Fc-IgG or DLL1-Fc and the modified Day 4 medium, as described above, at a higher density of 30,000 to 40,000 cells/cm^2 due to toxicity from the CellTracer. Aliquots of the purified cells were analyzed by flow cytometry to determine the purity of the MACS cells and establish the Generation 0 peak for the proliferation assay. Secondary cultures were collected every day after plating for flow cytometry analysis, and calibration beads were used to generate compatible CellTracer results. After D4+4, FlowJo™ Analysis software was used to concatenate the data from each day. The average number of cell divisions was calculated based on the number of cells on each day (FIG. 1F) and applied to the proliferation platform algorithm in FlowJo™ to determine the specific generation gates. Those peaks were re-applied to individual sets of data to determine the percentage of each generation within the hematoendothelial populations. For cell cycle analysis, D4+4 cells were incubated in culture medium with EdU (10 μM, Thermo Fisher) for 2 hours and stained with CD43 and CD144 antibodies for 20 min. […]"}, "D4 HE cells": {"tested_on": "D4 HE cells", "test": "Annexin V flow cytometric analysis of apoptosis", "format": "cell-based, human", "conditions": "D4+4"}, "[2]": {"tested_on": "cells collected from D4+4 HE cultures", "test": "Hematopoietic colony forming unit assay", "format": "cell-based, human", "conditions": "cells from D4+4 HE cultures in methocellulose, vs control", "description": "Hematopoietic colony forming unit assay was conducted in serum-containing H4436 Methocult (Stem Cell Technologies) as previously described^26, 35."}, "Runx1+23 enhancer": {"tested_on": "Runx1+23 enhancer", "test": "Runx1+23-eGFP reporter flow cytometry", "format": "cell-based, human", "conditions": "D4 HE cultured with DAPT or on DLL1-Fc", "description": "Runx1+23 enhancer fragment^33 was amplified by PCR and subsequently cloned into the AAVS-SA-2A-PURO vector (gift from Gadue Lab, The Children's Hospital of Philadelphia). Human ESCs were transfected with zinc-finger nuclease vectors and later puromycin-resistant individual cells were clonally expanded and on-targeted clones were selected, as previously described^38. Southern Blot (SB) analysis was performed by DIG-labeling hybridization (Roche). Briefly, 10 μg genomic DNA was digested using a EcoRV restriction enzyme for overnight, separated on a 0.7% agarose gel for 6 hours, transferred to a nylon membrane (Amersham), and incubated with DIG-labeling probes. The external probe is a DIG-labeled 600 nucleotide fragment that binds to the EcoRV-digested fragment of the 5′ external region. The internal probe is a DIG-labeled 700 nucleotide fragment that binds to the EcoRV-digested fragment of the of the eGFP region.\nFlow Cytometry was conducted using the MACSQuant 10 (Miltenyi Biotech). FACS-sorting was conducted on a FACS Aria II (BD) as previously described^26, 35, 86."}, "D4+4 CD43+ cells": {"tested_on": "D4+4 CD43+ cells", "test": "T-cell differentiation of D4+4 cultures on OP9-DLL4", "format": "cell-based, human", "description": "Total D4+4 cultures were singularized, strained, and cultured in T-cell differentiation conditions on OP9-DLL4 for 3 weeks as described^35. For D5+4 cultures, only the floating hematopoietic cells were collected and cultured in T-cell differentiation conditions. Limiting Dilution Assays were conducted with the floating cells collected from D5+4 cultures (HE:DLL4^− on OP9+DAPT, OP9+DMSO, and OP9-DLL4, and HE:DLL4^+ on OP9-DLL4). Row A of a 96-well plate received 500 cells/well, and each subsequent row afterwards had half the previous row (Row B contained 250, Row C contained 125 . . . Row H contained 3-4 cells). The wells were scored 2 weeks later by eye and flow-cytometry for CD5^+CD7^+ containing cells. Positive threshold was set at 167 CD5^+CD7^+ cells/well. Extreme limiting dilution analysis was conducted using the previously established algorithm^88"}, "D5 HE:DLL4+": {"tested_on": "D5 HE:DLL4+", "test": "Blood production from D5 HE:DLL4+ in OP9 co-culture with NOTCH inhibition", "format": "cell-based, human", "conditions": "treatment from D5 to D5+2, D5+2 to D5+4, and D5 to D5+4; 20 μM", "description": "(§2) OP9, OP9-DLL4, and the inducible OP9-iDLL4 (made in-house) cell lines were maintained in αMEM with 20% FBS (GE) on gelatin-coated plates in normoxia as previously described^86. Using TrypLE (Thermo), OP9 were passaged at a 1:8 ratio every 3-4 days when they were 80% confluent. One day before co-culture with differentiated human HE cells, OP9 lines were treated with mitomycin C (1 mg/ml) for 2 hours and then plated at a density of 12,500 cells/cm^2 as previously described^87. D4 HE cells or D5 CD144^+ subsets were plated onto OP9 lines at a density between 1000 to 2000 cells/cm^2 in medium containing αMEM with 10% FBS (GE), TPO, SCF, IL-6 (50 ng/ml), IL-3, and FLT3L (10 ng/ml). Medium was changed after 24 hours, and extra medium added 2 days later. Experiments conducted with DAPT were treated with 20 μM, while corresponding control conditions had DMSO added at a 1:500 dilution."}, "D5 HE:DLL4-": {"tested_on": "D5 HE:DLL4-", "test": "Blood production from D5 HE:DLL4- in OP9 co-culture with NOTCH inhibition", "format": "cell-based, human", "conditions": "DAPT 20 μM", "description": "as §2"}, "[3]": {"tested_on": "CD34+CD43-CD73- HE progenitors", "conditions": "NOTCH inhibition; cited from earlier work"}},
  "data": [
    {"smiles": "C[C@H](NC(=O)Cc1cc(F)cc(F)c1)C(=O)N[C@H](C(=O)OC(C)(C)C)c1ccccc1", "note": "[DAPT]", "values": [
      {"measurement": "activated cleaved form of NOTCH1", "setting": "NOTCH1", "result": "decrease"},
      {"measurement": "HES1 mRNA expression", "setting": "HES1", "result": "decreased"},
      {"measurement": "CD43+ HPs", "setting": "[1]; each day from D4+1 to D4+4", "result": "decreased CD43+ HPs"},
      {"measurement": "CD43hi CD144- cells on D4+2 through D4+4", "setting": "[1]; treated for 24-hours from D4 to D4+1", "result": "significant drop"},
      {"measurement": "hematopoiesis", "setting": "[1]; treatment throughout (D4 to D4+4)", "result": "more profoundly decreased hematopoiesis"},
      {"measurement": "ratio of hematopoietic/endothelial colonies", "setting": "D4 HE", "result": "markedly decreased"},
      {"measurement": "cycling CD43+ cells (EdU)", "setting": "D4 CD31+ HE cells; D4+4", "result": "no differences"},
      {"measurement": "distribution of CD43+ cells within each generation", "setting": "D4 CD31+ HE cells; D4+4, treated through D4+4", "result": "no significant shift"},
      {"measurement": "apoptosis of blood cells post-transition", "setting": "D4 HE cells", "result": "none of the conditions affected apoptosis"},
      {"measurement": "total number of colonies", "setting": "[2]", "result": "significantly lower"},
      {"measurement": "Runx1+23 enhancer activity (eGFP)", "setting": "Runx1+23 enhancer", "result": "decreases"},
      {"measurement": "T-cell potential of HPs", "setting": "D4+4 CD43+ cells", "result": "no T-cell potential"},
      {"measurement": "hematopoietic activity of the HE:DLL4+ population", "setting": "D5 HE:DLL4+", "result": "significantly inhibited hematopoietic activity"},
      {"measurement": "hematopoietic activity of HE:DLL4- cultures", "setting": "D5 HE:DLL4-", "result": "no effect on hematopoietic activity"},
      {"measurement": "production of CD45+ cells", "setting": "[3]", "result": "reduces production of CD45^+ cells"}
    ]}
  ]
}
